Experimental data published in patent publication US20230027026A1, “FUSED PYRIMIDINE COMPOUNDS, COMPOSITIONS AND MEDICINAL APPLICATIONS THEREOF” (JUBILANT BIOSYS LIMITED, priority 2019, published 2023).
Structures can show the parent of a compound that is named as a salt.

How the values were obtained:
[1] = molecular target: HER2 (A775_G776insYVMA) expressing Ba/F3 stable cell line (Homo sapiens, UniProt P04626, DUP772-775, cells depend on it); assay: Cellular proliferation (Alamar Blue) assay, HER2 YVMA Ba/F3; format: cell-based; conditions: HER2 A775_G776insYVMA Ba/F3, 72 hr, read-out: YVMA IC50
Sequence of HER2 (A775_G776insYVMA) expressing Ba/F3 stable cell line (P04626 with tags, fused parts or gaps DUP772-775): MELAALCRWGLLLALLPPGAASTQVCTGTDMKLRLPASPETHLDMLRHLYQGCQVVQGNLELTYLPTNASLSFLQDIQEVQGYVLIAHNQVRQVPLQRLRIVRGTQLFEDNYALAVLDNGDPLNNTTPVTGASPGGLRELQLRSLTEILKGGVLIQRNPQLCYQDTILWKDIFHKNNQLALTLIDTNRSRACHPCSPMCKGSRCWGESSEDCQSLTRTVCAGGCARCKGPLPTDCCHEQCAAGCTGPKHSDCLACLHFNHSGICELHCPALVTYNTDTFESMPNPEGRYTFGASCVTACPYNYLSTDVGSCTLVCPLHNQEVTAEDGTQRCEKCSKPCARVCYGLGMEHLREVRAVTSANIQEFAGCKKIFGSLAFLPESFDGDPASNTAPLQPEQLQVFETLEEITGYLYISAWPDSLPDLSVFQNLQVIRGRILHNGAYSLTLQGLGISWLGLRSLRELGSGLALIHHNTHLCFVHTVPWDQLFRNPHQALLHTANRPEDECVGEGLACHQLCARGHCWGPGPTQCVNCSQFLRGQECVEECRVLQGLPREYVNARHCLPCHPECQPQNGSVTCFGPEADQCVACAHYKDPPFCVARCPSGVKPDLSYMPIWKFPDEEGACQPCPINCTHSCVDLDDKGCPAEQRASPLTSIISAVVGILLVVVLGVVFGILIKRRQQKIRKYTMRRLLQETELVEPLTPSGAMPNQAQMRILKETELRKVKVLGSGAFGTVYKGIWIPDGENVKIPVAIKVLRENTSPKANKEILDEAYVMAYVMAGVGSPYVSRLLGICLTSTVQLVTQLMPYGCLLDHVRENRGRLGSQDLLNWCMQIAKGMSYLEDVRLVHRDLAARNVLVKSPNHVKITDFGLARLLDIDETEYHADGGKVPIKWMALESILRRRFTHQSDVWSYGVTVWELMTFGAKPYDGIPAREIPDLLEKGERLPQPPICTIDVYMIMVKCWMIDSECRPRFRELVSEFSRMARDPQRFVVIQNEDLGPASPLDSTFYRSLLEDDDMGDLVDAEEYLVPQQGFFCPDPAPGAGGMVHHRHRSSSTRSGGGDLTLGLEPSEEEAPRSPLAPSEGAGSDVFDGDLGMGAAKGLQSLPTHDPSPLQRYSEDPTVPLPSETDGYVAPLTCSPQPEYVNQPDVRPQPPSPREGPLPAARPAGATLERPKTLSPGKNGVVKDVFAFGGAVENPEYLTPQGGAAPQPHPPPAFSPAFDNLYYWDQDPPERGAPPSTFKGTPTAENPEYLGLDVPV
Procedure: (§1) Example 3: Cellular Proliferation (Alamar Blue) Assays
(§2) • 1. EGFR(D770_N771insSVD) expressing Ba/F3 stable cell line • 2. EGFR (A767_dupASV) expressing Ba/F3 stable cell line • 3. A431 cells • 4. BTER2 (A775_G776insYVMA) expressing Ba/F3 stable cell line • 5. BTER2 (WT) expressing Ba/F3 stable cell line • 6. BT-474 cells
(§3) • 1. Seed cells at 5000 for A431 and 15,000 cells for Ba/F3 in 100 μL/well in complete media (for A431: DMEM with 10% FBS and for Ba/F3 cells: RPMI with 10% FBS) in 96-well tissue culture plate. Leave outer wells without cells for background measurements. Incubate at 37 degree Celsius in 5% CO2 humidified incubator for 16-18 hours. • 2. Add 0.025 ml of 5× concentration compound dilution or DMSO control. Final compound concentration range is 10-0.0005 μM prepared in 3-fold serial dilutions. Incubate for 72 hr at 37 degree Celsius in […] humidified incubator. • 3. Add 0.0125 mL Alamar Blue™ reagent to each well with multi-channel pipette and tap gently on each side of the plate to mix. Incubate for 3 hours at 37 degree Celsius in […] humidified incubator. • 4. Read plates on fluorescence reader (Tecan Spark Control, Device: Spark, Serial #: 1801006040) at 540 nm excitation, 590 nm emission wavelength. • 5. Data analysis was performed using XLfit 5.5.0.5.

[2] = molecular target: EGFR(D770_N771insSVD) expressing Ba/F3 stable cell line (Homo sapiens, UniProt P00533, DUP768-770, cells depend on it); assay: Cellular proliferation (Alamar Blue) assay, EGFR D770_N771insSVD Ba/F3; format: cell-based; conditions: EGFR D770_N771insSVD Ba/F3, 72 hr, read-out: D770 IC50
Sequence of EGFR(D770_N771insSVD) expressing Ba/F3 stable cell line (P00533 with tags, fused parts or gaps DUP768-770): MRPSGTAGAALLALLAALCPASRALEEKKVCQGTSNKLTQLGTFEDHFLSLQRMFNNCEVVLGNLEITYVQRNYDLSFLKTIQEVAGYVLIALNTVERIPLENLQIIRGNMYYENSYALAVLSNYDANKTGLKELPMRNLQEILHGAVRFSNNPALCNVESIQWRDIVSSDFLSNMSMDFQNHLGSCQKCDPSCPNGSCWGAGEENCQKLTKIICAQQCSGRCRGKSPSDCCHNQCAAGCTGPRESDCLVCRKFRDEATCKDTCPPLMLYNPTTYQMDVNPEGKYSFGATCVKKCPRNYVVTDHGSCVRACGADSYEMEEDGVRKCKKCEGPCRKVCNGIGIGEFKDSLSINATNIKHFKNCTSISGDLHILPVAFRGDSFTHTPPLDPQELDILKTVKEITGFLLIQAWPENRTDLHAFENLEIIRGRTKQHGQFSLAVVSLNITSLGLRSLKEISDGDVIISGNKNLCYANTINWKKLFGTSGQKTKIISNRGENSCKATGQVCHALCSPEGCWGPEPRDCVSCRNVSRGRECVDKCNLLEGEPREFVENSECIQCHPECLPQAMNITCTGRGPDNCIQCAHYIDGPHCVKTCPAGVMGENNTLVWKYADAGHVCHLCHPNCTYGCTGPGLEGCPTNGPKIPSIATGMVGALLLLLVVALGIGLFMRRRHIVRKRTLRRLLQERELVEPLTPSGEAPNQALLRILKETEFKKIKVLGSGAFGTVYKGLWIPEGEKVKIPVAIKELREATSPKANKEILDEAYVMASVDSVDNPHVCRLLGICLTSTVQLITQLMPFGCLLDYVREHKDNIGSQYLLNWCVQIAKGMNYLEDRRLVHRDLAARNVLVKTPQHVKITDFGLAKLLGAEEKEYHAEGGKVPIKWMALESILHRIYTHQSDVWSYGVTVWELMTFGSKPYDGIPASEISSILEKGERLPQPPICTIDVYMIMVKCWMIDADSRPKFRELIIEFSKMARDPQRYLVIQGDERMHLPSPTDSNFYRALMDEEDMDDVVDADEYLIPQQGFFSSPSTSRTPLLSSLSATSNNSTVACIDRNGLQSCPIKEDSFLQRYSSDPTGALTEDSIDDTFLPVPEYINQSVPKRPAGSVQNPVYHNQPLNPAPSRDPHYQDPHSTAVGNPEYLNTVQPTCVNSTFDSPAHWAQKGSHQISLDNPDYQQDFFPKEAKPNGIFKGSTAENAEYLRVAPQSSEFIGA
Procedure: as §1, §2, §3

[3] = molecular target: EGFR (A767_dupASV) expressing Ba/F3 stable cell line (Homo sapiens, UniProt P00533, DUP767-769, cells depend on it); assay: Cellular proliferation (Alamar Blue) assay, EGFR A767_dupASV Ba/F3; format: cell-based; conditions: EGFR A767_dupASV Ba/F3, 72 hr, read-out: A767 IC50
Sequence of EGFR (A767_dupASV) expressing Ba/F3 stable cell line (P00533 with tags, fused parts or gaps DUP767-769): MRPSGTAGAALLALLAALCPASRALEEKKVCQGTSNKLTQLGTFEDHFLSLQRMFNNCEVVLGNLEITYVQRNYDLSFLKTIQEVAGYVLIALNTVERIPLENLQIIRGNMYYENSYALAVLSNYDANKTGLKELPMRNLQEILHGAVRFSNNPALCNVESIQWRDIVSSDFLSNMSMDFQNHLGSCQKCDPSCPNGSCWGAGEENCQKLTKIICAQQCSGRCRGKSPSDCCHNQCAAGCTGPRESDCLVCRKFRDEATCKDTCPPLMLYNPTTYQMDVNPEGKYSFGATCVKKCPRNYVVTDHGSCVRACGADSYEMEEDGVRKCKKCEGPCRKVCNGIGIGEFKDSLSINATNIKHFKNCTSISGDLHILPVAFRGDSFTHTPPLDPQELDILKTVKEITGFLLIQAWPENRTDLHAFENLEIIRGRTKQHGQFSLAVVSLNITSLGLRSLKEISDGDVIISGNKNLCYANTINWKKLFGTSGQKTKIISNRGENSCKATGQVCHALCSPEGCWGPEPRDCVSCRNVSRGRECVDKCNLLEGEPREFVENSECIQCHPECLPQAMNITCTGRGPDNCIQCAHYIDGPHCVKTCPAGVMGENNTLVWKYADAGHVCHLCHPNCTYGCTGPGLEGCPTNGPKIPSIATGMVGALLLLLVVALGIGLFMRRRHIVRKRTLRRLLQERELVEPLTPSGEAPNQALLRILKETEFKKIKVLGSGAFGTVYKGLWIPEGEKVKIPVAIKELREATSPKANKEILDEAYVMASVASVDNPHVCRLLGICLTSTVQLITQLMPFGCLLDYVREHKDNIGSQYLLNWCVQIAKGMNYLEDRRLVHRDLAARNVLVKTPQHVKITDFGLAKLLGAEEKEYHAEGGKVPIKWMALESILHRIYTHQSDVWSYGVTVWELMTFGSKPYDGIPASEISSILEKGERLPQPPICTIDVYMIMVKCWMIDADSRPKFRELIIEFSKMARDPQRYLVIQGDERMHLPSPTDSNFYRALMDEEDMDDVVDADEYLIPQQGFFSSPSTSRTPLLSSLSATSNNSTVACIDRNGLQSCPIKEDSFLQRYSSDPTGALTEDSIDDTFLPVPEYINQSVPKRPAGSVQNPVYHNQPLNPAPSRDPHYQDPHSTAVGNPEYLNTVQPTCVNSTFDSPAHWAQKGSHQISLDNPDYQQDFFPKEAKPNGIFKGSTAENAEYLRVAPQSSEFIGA
Procedure: as §1, §2, §3

A431 cells = assay: Cellular proliferation (Alamar Blue) assay, A431; format: cell-based; conditions: Homo sapiens, A-431; A431 cells, 72 hr, Alamar Blue; read-out: A431 IC50
Procedure: as §1, §2, §3

EGFR (T790M/L858R) = molecular target: T1, EGFR (T790M/L858R) (Homo sapiens, UniProt P00533, L858R/T790M); assay: EGFR L858R/T790M enzyme inhibition assay (HTRF); format: biochemical; conditions: 5 μM ATP, 60 min, read-out: EGFR_L858R T790M_IC50_nM
T1 construct: GST; purchased Proqinase
T1 sequence (P00533 25-1210 T790M/L858R): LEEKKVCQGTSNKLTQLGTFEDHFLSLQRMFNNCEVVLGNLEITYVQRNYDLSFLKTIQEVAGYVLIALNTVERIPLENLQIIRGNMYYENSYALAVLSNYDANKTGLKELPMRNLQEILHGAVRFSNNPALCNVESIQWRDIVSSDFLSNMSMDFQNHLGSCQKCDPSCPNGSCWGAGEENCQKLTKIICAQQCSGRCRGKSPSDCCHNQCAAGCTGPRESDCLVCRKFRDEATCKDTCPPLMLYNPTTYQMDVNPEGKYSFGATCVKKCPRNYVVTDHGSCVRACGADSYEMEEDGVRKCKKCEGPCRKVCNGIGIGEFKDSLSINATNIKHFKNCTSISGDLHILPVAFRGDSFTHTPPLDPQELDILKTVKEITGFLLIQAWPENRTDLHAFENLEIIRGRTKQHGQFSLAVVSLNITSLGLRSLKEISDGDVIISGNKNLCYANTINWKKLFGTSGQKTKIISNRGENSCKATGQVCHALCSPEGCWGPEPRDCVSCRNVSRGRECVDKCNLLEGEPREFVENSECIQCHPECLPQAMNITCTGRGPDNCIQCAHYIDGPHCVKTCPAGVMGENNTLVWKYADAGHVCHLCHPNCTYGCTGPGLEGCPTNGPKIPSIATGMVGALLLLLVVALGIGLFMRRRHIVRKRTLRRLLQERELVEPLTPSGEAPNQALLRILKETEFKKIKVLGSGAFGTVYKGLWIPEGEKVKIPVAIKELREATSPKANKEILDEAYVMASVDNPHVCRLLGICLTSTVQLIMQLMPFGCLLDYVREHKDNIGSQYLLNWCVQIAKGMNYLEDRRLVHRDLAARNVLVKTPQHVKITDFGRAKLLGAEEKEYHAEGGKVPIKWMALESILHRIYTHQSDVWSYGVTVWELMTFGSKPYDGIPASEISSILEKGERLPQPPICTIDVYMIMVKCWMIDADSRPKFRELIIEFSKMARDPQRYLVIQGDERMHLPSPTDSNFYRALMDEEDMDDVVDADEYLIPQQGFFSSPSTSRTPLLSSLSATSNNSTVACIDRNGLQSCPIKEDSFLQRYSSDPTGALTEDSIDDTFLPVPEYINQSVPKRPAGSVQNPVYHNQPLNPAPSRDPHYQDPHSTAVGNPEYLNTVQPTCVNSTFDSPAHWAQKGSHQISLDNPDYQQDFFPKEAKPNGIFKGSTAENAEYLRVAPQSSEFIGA
Procedure: Example 2: EGFR L858R & Del19/T790M Assay Protocol (to Find the IC50 for the Compounds Using HTRF Method)
Reagents for Enzyme Assay:
• 1. Enzyme Assay Buffer: 60 mM HEPES (pH 7.4), 50 mM NaCl, 20 mM MgCl2, 5 mM MnCl2, filtered using 0.2 μm pore size, stored at 4° C. • Supplements (added fresh to the enzyme buffer): 1M DTT stock was made, 5% BSA stock and 0.1M Na3OV4 stored at 4° C. Enzyme assay buffer 50 mL, 1 M DTT 100 μL, 5% BSA 500 μL, 0.1 M Na3OV4 50 μL. • 2. GST-hEGFR (L858R), active: EGFR (T790M/L858R), active (Proqinase), 3.6 μM stock; 2.5 nM in final assay. • 3. Gastrin Precusor-Biotinylated: Gastrin precursor (Tyr87) biotinylated peptide, EEAY*GWM, Cell Signaling Tech 1310, Lot-7, Want final 0.5 μM in assay. • 4. ATP: 10 mM stock in 100 μL Enzyme assay buffer pH 7.4 prepared freshly, want 5 μM in final assay. • 5. Test compounds: Powders were dissolved in 100% DMSO and made up to a final stock concentration of 10 mM (volume in μL to add for 10 mM=mg powder X 10^5/MW). Final compound concentration in the assay plate started at 10 μM.
• 1. HTRF buffer: 50 mM Tris —HCl, pH-7.5, 100 mM NaCl, 0.1% BSA, 0.05% Tween20, 0.5 mM EDTA, filtered using 0.2 μm pore size, stored at 4° C. • Phycolink® Streptavidin-Allophycocyanin (SA-APC) Prozyme, Cat. #PJ25S, Lot #896 085, 2.06 mg/mL, APC concentration is 11.6 μM, streptavidin concentration is 15.5 μM. Want 12 nM final in assay (based on streptavidin concentration). • 2. (Europium) Eu-W1024 Anti-phosphotyrosine (PT-66) Antibody: Perkin Elmer (Product Number: AD0068), monoclonal IgG1 that recognizes phosphotyrosine peptide 100 μg/ml stock. Want 0.1 nM final in assay.
• 1. The compound dilution was made by TECAN as per the above scheme. • 2. 16 μL of diluted compound was added to the assay plate by using TECAN. • 3. 10 μL of enzyme mix was added to each well except mins. • 4. 20 μL of substrate and ATP mix were added into each well of the assay plate, manually. • 5. The plate was incubated on a laboratory shaker at room temperature for 60 min. • 6. Meanwhile, the HTRF mix was prepared and 75 μL was added to the HTRF plate. • 7. When the incubation was over, 10 μL of the reaction mixture was transferred to the HTRF assay plate and incubated on a laboratory shaker for 30 min at room temperature. • 8. The reading was taken in Pherastar (ext 337 nm, Em 665 & 620 nm). • 9. The results were analyzed using Graphpad prism after calculation of the z factor, signal window and % inhibition to get the IC50.

Row | SMILES | GI50 [1] [nM] | GI50 [2] [nM] | GI50 [3] [nM] | IC50 (A431 cells) [nM] | IC50 (EGFR (T790M/L858R)) [nM]
1 | COC/C=C/C(=O)Nc1cccc(N2C(=O)N(Cc3ccccc3)Cc3cnc(Nc4cn(C)nc4F)nc32)c1 [Compound 83, (E)-N-(3-(3-benzyl-7-((3-fluoro-1-methyl-1H-pyrazol-4-yl)amino)-2-oxo-3,4-dihydropyrimido[4,5-d]pyrimidin-1(2H)-yl)phenyl)-4-methoxybut-2-enamide] | 740 | 992 | 1010 | ≥ 10000 | 
2 | CN(C)C/C=C/C(=O)N1CCC(N2C(=O)N(Cc3ccccc3)Cc3cnc(Nc4cn(C)nc4Cl)nc32)C1 (centres unmarked) [Compound 34, (E)-3-benzyl-7-((3-chloro-1-methyl-1H-pyrazol-4-yl)amino)-1-(1-(4-(dimethylamino)but-2-enoyl)pyrrolidin-3-yl)-3,4-dihydropyrimido[4,5-d]pyrimidin-2(1H)-one] |  |  |  |  | 6570
3 | CN(C)C/C=C/C(=O)Nc1cccc(N2C(=O)N(c3ccccc3)Cc3cnc(Nc4cn(C5CCN(C)CC5)nc4Cl)nc32)c1 [Compound 106, (E)-N-(3-(7-((3-chloro-1-(1-methylpiperidin-4-yl)-1H-pyrazol-4-yl)amino)-2-oxo-3-phenyl-3,4-dihydropyrimido[4,5-d]pyrimidin-1(2H)-yl)phenyl)-4-(dimethylamino)but-2-enamide] | 995 | 1110 | 926 | 8930 | 
4 | CN(C)C/C=C/C(=O)NC1CCCC(N2C(=O)N(Cc3ccccc3)Cc3cnc(Nc4cn(C)nc4Cl)nc32)C1 (centres unmarked) [Compound 33, (E)-N-(3-(3-benzyl-7-((3-chloro-1-methyl-1H-pyrazol-4-yl)amino)-2-oxo-3,4-dihydropyrimido[4,5-d]pyrimidin-1(2H)-yl)cyclohexyl)-4-(dimethylamino)but-2-enamide] |  | 3880 | 4080 | ≥ 10000 | 869
5 | C=CC(=O)N1CC[C@H](N2C(=O)N(c3ccccc3)Cc3cnc(Nc4cn(C)nc4Cl)nc32)C1 [Compound 41, (S)-1-(1-acryloylpyrrolidin-3-yl)-7-((3-chloro-1-methyl-1H-pyrazol-4-yl)amino)-3-phenyl-3,4-dihydropyrimido[4,5-d]pyrimidin-2(1H)-one] |  | 759 | 504 | ≥ 10000 | 580
6 | CN(C)C/C=C/C(=O)N1CC[C@H](N2C(=O)N(c3ccccc3)Cc3cnc(Nc4cn(C)nc4Cl)nc32)C1 [Compound 42, (S,E)-7-((3-chloro-1-methyl-1H-pyrazol-4-yl)amino)-1-(1-(4-(dimethylamino)but-2-enoyl)pyrrolidin-3-yl)-3-phenyl-3,4-dihydropyrimido[4,5-d]pyrimidin-2(1H)-one] |  | ≥ 10000 | ≥ 10000 | ≥ 10000 | ≥ 10000
7 | C=CC(=O)N1CC[C@@H](N2C(=O)N(Cc3ccccc3)Cc3cnc(Nc4cn(C)nc4Cl)nc32)C1 (single isomer, unassigned) [Compound 38] |  | ≥ 10000 | ≥ 10000 | 7490 | 446
8 | C=CC(=O)NC1CCCC(N2C(=O)N(c3ccc(F)cc3)Cc3cnc(Nc4cn(C)nc4Cl)nc32)C1 (centres unmarked) [Compound 36, N-(3-(7-((3-chloro-1-methyl-1H-pyrazol-4-yl)amino)-3-(4-fluorophenyl)-2-oxo-3,4-dihydropyrimido[4,5-d]pyrimidin-1(2H)-yl)cyclohexyl)acrylamide] |  | ≥ 10000 | 3920 | ≥ 10000 | 2.97

Results, then the compound that gave them:

Row | GI50 [1] [nM] | GI50 [2] [nM] | GI50 [3] [nM] | IC50 (A431 cells) [nM] | IC50 (EGFR (T790M/L858R)) [nM] | SMILES
9 | 49 | 20 | 4 | ≥ 10000 |  | C=CC(=O)Nc1cccc(N2C(=O)N(Cc3ccccc3)Cc3cnc(Nc4cn(C)nc4Cl)nc32)c1 [Compound 73, N-(3-(3-benzyl-7-((3-chloro-1-methyl-1H-pyrazol-4-yl)amino)-2-oxo-3,4-dihydropyrimido[4,5-d]pyrimidin-1(2H)-yl)phenyl)acrylamide]
10 | 101 | 40 | 22 | > 10000 |  | Cn1cc(Nc2ncc3c(n2)N(c2cccc(NC(=O)/C=C/CF)c2)C(=O)N(Cc2ccccc2)C3)c(F)n1 [Compound 88, (E)-N-(3-(3-benzyl-7-((3-fluoro-1-methyl-1H-pyrazol-4-yl)amino)-2-oxo-3,4-dihydropyrimido[4,5-d]pyrimidin-1(2H)-yl)phenyl)-4-fluorobut-2-enamide]
11 | 319 | 300 | 176 | ≥ 10000 |  | C=CC(=O)Nc1cccc(N2C(=O)N(c3ccccc3)Cc3cnc(Nc4cn(C(C)(C)C#N)nc4Cl)nc32)c1 [Compound 123, N-(3-(7-((3-chloro-1-(2-cyanopropan-2-yl)-1H-pyrazol-4-yl)amino)-2-oxo-3-phenyl-3,4-dihydropyrimido[4,5-d]pyrimidin-1(2H)-yl)phenyl)acrylamide trifluoroacetate salt]
12 | 80 | 25 | 11 | ≥ 10000 |  | Cn1cc(Nc2ncc3c(n2)N(c2cccc(NC(=O)/C=C/CF)c2)C(=O)N(Cc2ccccc2)C3)c(Cl)n1 [Compound 74, (E)-N-(3-(3-benzyl-7-((3-chloro-1-methyl-1H-pyrazol-4-yl)amino)-2-oxo-3,4-dihydropyrimido[4,5-d]pyrimidin-1(2H)-yl)phenyl)-4-fluorobut-2-enamide]
13 | 294 | 120 | 43 | > 10000 |  | O=C(/C=C/CF)Nc1cccc(N2C(=O)N(c3ccccc3)Cc3cnc(Nc4cccnc4F)nc32)c1 [Compound 135, (E)-4-fluoro-N-(3-(7-((2-fluoropyridin-3-yl)amino)-2-oxo-3-phenyl-3,4-dihydropyrimido[4,5-d]pyrimidin-1(2H)-yl)phenyl)but-2-enamide]
14 | 24 | 12 | 11 | ≥ 10000 |  | C=CC(=O)Nc1ccc(F)c(N2C(=O)N(c3ccccc3)Cc3cnc(Nc4cn(C)nc4Cl)nc32)c1 [Compound 128, N-(3-(7-((3-chloro-1-methyl-1H-pyrazol-4-yl)amino)-2-oxo-3-phenyl-3,4-dihydropyrimido[4,5-d]pyrimidin-1(2H)-yl)-4-fluorophenyl)acrylamide trifluoroacetate salt]
